In brackets after ≈: the same amount, converted by molar mass. Activity calls are given as the source filed them. The calls are words filed in the database; no cut-off is given here.
Columns and labels:
[1] = target: T1, Cytochrome P450 1A2 (Homo sapiens, UniProt P05177); assay: Time dependent inhibition of CYP1A2 in human liver microsomes; type: ADME
[2] = target: T2, Cytochrome P450 3A4 (Homo sapiens, UniProt P08684); assay: Time dependent inhibition of CYP3A4 in human liver microsomes using BFC/BZR as substrate; type: ADME
[3] = target: Glutamate receptor ionotropic, NMDA 2B (Homo sapiens, UniProt Q05586+Q13224); assay: Negative allosteric modulation of human GluN2B receptor expressed in Xenopus laevis oocytes assessed as inhibition of glutamate/glycine-induced channel current after 15 to 20 mins by two electrode voltage clamp based electrophysiology assay; type: cell-based
[4] = test system: Mus musculus; assay: Ex vivo receptor occupancy at GluN2B receptor in CD-1 mouse forebrain membranes assessed as reduction in [3H]Ro 25-6981 receptor labeling at 1 mg/kg, iv incubated for 5 mins by topcount micro scintillation counting method; type: functional
[5] = Plasma concentration in CD-1 mouse at 0.1 to 1 mg/kg, iv; type: ADME, organism-based; conditions: in vivo
[6] = Fraction unbound in human plasma; type: ADME, cell-free
[7] = Fraction unbound in rat plasma; type: ADME, cell-free
[8] = Fraction unbound in mouse plasma; type: ADME, cell-free
[9] = Dissociation constant, pKa of the compound by spectrophotometric method; type: physicochemical
[10] = test system: Mus musculus; assay: Ex vivo receptor occupancy at GluN2B receptor in CD-1 mouse forebrain membranes assessed as reduction in [3H]Ro 25-6981 receptor labeling at 3 mg/kg, iv incubated for 5 mins by topcount micro scintillation counting method; type: functional
[11] = target: Glutamate receptor ionotropic, NMDA 2A (Homo sapiens) (UniProt Q12879); assay: Negative allosteric modulation of human GluN2A receptor expressed in Xenopus laevis oocytes assessed as inhibition of glutamate/glycine-induced channel current at 3 uM after 10 to 15 mins by two electrode voltage clamp based electrophysiology assay; type: cell-based
[12] = target: Glutamate receptor ionotropic, NMDA 2C (Homo sapiens) (UniProt Q14957); assay: Negative allosteric modulation of human GluN2C receptor expressed in Xenopus laevis oocytes assessed as inhibition of glutamate/glycine-induced channel current at 3 uM after 10 to 15 mins by two electrode voltage clamp based electrophysiology assay; type: cell-based
[13] = target: Glutamate receptor ionotropic, NMDA 2D (Homo sapiens) (UniProt O15399); assay: Negative allosteric modulation of human GluN2D receptor expressed in Xenopus laevis oocytes assessed as inhibition of glutamate/glycine-induced channel current at 3 uM after 10 to 15 mins by two electrode voltage clamp based electrophysiology assay; type: cell-based
[14] = test system: Salmonella typhimurium; assay: Mutagenicity in Salmonella typhimurium by Ames test; type: toxicity, organism-based; conditions: salmonella enterica subsp. enterica serovar typhimurium
[15] = Fraction unbound in cynomolgus monkey plasma; type: ADME, cell-free, Macaca fascicularis
[16] = Half life in human liver microsomes; type: ADME, microsome
[17] = Half life in rat liver microsomes; type: ADME, microsome
[18] = Half life in mouse liver microsomes; type: ADME, microsome
[19] = Half life in cynomolgus monkey liver microsomes; type: ADME, Macaca fascicularis, microsome
[20] = Half life in dog liver microsomes; type: ADME, Canis lupus familiaris, microsome
[21] = Fraction unbound in dog plasma; type: ADME, cell-free, Canis lupus familiaris
[22] = target: T2, Cytochrome P450 3A4; assay: Inhibition of CYP3A4 in human liver microsomes using BFC/BZR as substrate; type: ADME
[23] = target: T1, Cytochrome P450 1A2; assay: Inhibition of CYP1A2 in human liver microsomes; type: ADME
[24] = target: T3, Cytochrome P450 2B6 (Homo sapiens, UniProt P20813); assay: Inhibition of CYP2B6 in human liver microsomes; type: ADME
[25] = target: T4, Cytochrome P450 2C8 (Homo sapiens, UniProt P10632); assay: Inhibition of CYP2C8 in human liver microsomes; type: ADME
[26] = target: T5, Cytochrome P450 2C9 (Homo sapiens, UniProt P11712); assay: Inhibition of CYP2C9 in human liver microsomes; type: ADME
[27] = target: T6, Cytochrome P450 2C19 (Homo sapiens, UniProt P33261); assay: Inhibition of CYP2C19 in human liver microsomes; type: ADME
[28] = target: T7, Cytochrome P450 2D6 (Homo sapiens, UniProt P10635); assay: Inhibition of CYP2D6 in human liver microsomes; type: ADME
[29] = Octanol/water buffer partition co-efficient, log D of the compound at pH 7.4 by shake-flask method; type: physicochemical
[30] = Aqueous solubility of the compound at pH 7.4; type: physicochemical; conditions: aqueous medium
[31] = Ratio of drug uptake in CD-1 mouse brain to plasma at 0.1 to 1 mg/kg, iv; type: ADME, organism-based; conditions: read-out: BPR
[32] = Binding affinity to GluN2B receptor in cynomolgus monkey cortex; design: species or system Macaca fascicularis
[33] = target: Glutamate receptor ionotropic, NMDA 2B (Homo sapiens, UniProt Q13224); assay: Binding affinity to GluN2B receptor in human cortex
[34] = Half life in CD-1 mouse at 1 mg/kg, iv administered as 5 mins infusion; type: ADME, organism-based; conditions: in vivo
[35] = Clearance in CD-1 mouse at 1 mg/kg, iv administered as 5 mins infusion; type: ADME, organism-based; conditions: in vivo
[36] = Volume of distribution at steady state in CD-1 mouse at 1 mg/kg, iv administered as 5 mins infusion; type: ADME, organism-based; conditions: in vivo, read-out: Vdss
[37] = AUClast in CD-1 mouse at 1 mg/kg, iv administered as 5 mins infusion; type: ADME, organism-based; design: dose 1 mg/kg, time 0 - last, route intravenous; conditions: in vivo
[38] = Half life in Sprague-Dawley rat at 1 mg/kg, iv administered as 5 mins infusion; type: ADME, organism-based; conditions: in vivo
[39] = Clearance in Sprague-Dawley rat at 1 mg/kg, iv administered as 5 mins infusion; type: ADME, organism-based; conditions: in vivo
[40] = Volume of distribution at steady state in Sprague-Dawley rat at 1 mg/kg, iv administered as 5 mins infusion; type: ADME, organism-based; conditions: in vivo, read-out: Vdss
[41] = AUClast in Sprague-Dawley rat at 1 mg/kg, iv administered as 5 mins infusion; type: ADME, organism-based; design: dose 1 mg/kg, route intravenous, time 0 - last; conditions: in vivo
[42] = Half life in cynomolgus monkey at 1 mg/kg, iv administered as 5 mins infusion; type: ADME, organism-based, Macaca fascicularis; conditions: in vivo
[43] = Clearance in cynomolgus monkey at 1 mg/kg, iv administered as 5 mins infusion; type: ADME, organism-based, Macaca fascicularis; conditions: in vivo
[44] = Volume of distribution at steady state in cynomolgus monkey at 1 mg/kg, iv administered as 5 mins infusion; type: ADME, organism-based, Macaca fascicularis; conditions: in vivo, read-out: Vdss
[45] = AUClast in cynomolgus monkey at 1 mg/kg, iv administered as 5 mins infusion; type: ADME, organism-based, Macaca fascicularis; design: dose 1 mg/kg, route intravenous, time 0 - last; conditions: in vivo
[46] = Half life in Beagle dog at 1 mg/kg, iv administered as 5 mins infusion; type: ADME, organism-based, Canis lupus familiaris; conditions: in vivo
[47] = Clearance in Beagle dog at 1 mg/kg, iv administered as 5 mins infusion; type: ADME, organism-based, Canis lupus familiaris; conditions: in vivo
[48] = Volume of distribution at steady state in Beagle dog at 1 mg/kg, iv administered as 5 mins infusion; type: ADME, organism-based, Canis lupus familiaris; conditions: in vivo, read-out: Vdss
[49] = AUClast in Beagle dog at 1 mg/kg, iv administered as 5 mins infusion; type: ADME, organism-based, Canis lupus familiaris; design: dose 1 mg/kg, time 0 - last, route intravenous; conditions: in vivo
[50] = Oral bioavailability in rat at 5 mg/kg; type: ADME, organism-based; conditions: in vivo
[51] = test system: Cavia porcellus; assay: Cardiotoxicity in guinea pig assessed as increase in QTcB at 2 to 10 mg/kg, iv; type: toxicity, organism-based; conditions: in vivo
[52] = Unbound plasma concentration in guinea pig at 2 to 10 mg/kg, iv; type: ADME, organism-based, Cavia porcellus; conditions: in vivo
[53] = target: T3, Cytochrome P450 2B6; assay: Time dependent inhibition of CYP2B6 in human liver microsomes; type: ADME
[54] = target: T4, Cytochrome P450 2C8; assay: Time dependent inhibition of CYP2C8 in human liver microsomes; type: ADME
[55] = target: T5, Cytochrome P450 2C9; assay: Time dependent inhibition of CYP2C9 in human liver microsomes; type: ADME
[56] = target: T6, Cytochrome P450 2C19; assay: Time dependent inhibition of CYP2C19 in human liver microsomes; type: ADME
[57] = target: T7, Cytochrome P450 2D6; assay: Time dependent inhibition of CYP2D6 in human liver microsomes; type: ADME
[58] = target: Adrenergic receptor alpha-1 (Homo sapiens) (UniProt P35348+P25100+P35368); assay: Inhibition of human adrenergic alpha 1 receptor; type: protein assay
[59] = Prodrug activation in rat assessed as BMS-986169 level in blood at 37 degC; type: tissue-based
[60] = Prodrug activation in monkey assessed as BMS-986169 level in blood at 37 degC; type: tissue-based, Macaca mulatta; conditions: rhesus monkey
[61] = Prodrug activation in dog assessed as BMS-986169 level in blood at 37 degC; type: tissue-based, Canis lupus familiaris
[62] = Prodrug activation in human assessed as BMS-986169 level in blood at 37 degC; type: tissue-based
[63] = Prodrug activation in cynomolgus monkey assessed as BMS-986169 level in plasma at 1.2 mg/kg, iv measured 10 mins post dose; type: organism-based, Macaca fascicularis; conditions: in vivo
[64] = test system: Rhesus monkey; assay: AUC (0 to 24 hrs) in monkey at 36 mg/kg, iv assessed as BMS-986169 level in plasma; type: ADME, organism-based, Macaca mulatta; design: dose 36 mg/kg, time < 24 hr, route intravenous; conditions: in vivo
[65] = target: Voltage-gated inwardly rectifying potassium channel KCNH2 (Homo sapiens, UniProt Q12809); assay: Inhibition of human ERG expressed in HEK293 cells assessed as reduction in peak tail current after 2 to 5 mins by patch clamp based electrophysiology assay; type: cell-based
[66] = target: Glutamate receptor ionotropic, NMDA 2B (Rattus norvegicus, UniProt Q00960); assay: Displacement of [3H]Ro 25-6981 from GluN2B receptor in Sprague-Dawley rat forebrain membranes incubated for 1 hr by topcount micro scintillation counting method; design: species or system Membrane

Chain of Voltage-gated inwardly rectifying potassium channel KCNH2 (Q12809 whole entry): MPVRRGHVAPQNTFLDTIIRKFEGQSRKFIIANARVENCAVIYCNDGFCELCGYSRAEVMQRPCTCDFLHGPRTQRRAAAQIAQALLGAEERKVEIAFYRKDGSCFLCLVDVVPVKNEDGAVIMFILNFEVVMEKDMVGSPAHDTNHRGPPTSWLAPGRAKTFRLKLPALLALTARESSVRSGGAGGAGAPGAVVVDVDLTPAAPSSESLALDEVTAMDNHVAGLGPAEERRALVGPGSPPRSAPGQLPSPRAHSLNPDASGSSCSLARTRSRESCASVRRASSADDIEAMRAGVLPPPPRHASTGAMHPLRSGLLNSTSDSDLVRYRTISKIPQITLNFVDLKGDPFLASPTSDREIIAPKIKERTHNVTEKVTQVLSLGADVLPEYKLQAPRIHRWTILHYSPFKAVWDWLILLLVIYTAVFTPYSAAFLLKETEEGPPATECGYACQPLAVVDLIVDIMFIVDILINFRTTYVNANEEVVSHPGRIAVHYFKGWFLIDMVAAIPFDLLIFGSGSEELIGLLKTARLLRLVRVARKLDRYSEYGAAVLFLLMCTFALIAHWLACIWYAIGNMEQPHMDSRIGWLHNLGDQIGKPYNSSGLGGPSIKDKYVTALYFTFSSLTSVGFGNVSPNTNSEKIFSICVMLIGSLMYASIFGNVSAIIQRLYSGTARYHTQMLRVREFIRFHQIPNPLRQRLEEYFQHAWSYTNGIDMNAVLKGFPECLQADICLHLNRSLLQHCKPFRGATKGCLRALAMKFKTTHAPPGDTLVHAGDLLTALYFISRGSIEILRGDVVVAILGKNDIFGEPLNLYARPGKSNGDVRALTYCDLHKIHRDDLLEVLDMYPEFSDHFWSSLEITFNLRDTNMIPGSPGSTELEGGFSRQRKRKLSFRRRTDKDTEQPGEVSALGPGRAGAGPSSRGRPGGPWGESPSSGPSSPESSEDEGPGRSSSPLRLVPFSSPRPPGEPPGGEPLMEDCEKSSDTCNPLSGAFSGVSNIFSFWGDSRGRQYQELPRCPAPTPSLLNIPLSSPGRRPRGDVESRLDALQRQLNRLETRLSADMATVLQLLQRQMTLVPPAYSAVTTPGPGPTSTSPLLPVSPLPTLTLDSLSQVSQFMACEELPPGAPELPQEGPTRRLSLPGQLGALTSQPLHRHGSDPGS
T6 sequence (P33261 whole entry): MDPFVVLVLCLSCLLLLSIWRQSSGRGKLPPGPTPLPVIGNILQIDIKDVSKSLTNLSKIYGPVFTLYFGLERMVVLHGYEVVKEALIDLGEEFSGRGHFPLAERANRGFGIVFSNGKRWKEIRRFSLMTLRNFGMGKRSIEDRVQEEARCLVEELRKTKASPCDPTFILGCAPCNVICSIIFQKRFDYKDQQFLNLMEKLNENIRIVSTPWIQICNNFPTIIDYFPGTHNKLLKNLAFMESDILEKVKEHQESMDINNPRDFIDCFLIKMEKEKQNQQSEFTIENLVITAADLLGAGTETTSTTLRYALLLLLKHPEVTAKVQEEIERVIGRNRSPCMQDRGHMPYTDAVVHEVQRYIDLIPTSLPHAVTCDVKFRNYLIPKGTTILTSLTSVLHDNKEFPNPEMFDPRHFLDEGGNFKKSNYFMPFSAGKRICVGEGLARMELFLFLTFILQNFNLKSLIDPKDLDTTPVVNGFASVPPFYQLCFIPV
T3 sequence (P20813 whole entry): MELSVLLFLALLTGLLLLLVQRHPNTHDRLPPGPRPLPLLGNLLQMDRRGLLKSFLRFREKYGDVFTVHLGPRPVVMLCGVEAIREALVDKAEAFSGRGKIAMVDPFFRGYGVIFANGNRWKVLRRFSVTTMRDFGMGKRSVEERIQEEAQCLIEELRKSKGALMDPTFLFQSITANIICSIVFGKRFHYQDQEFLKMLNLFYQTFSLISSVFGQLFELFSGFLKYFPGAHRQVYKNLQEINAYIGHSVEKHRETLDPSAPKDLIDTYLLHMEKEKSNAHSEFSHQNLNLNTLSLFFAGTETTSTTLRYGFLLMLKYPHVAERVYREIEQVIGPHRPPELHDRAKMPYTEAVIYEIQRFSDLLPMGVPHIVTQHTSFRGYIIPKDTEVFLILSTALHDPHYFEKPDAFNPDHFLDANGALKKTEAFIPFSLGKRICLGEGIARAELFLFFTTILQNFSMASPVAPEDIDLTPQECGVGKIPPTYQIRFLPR
T1 sequence (P05177 whole entry): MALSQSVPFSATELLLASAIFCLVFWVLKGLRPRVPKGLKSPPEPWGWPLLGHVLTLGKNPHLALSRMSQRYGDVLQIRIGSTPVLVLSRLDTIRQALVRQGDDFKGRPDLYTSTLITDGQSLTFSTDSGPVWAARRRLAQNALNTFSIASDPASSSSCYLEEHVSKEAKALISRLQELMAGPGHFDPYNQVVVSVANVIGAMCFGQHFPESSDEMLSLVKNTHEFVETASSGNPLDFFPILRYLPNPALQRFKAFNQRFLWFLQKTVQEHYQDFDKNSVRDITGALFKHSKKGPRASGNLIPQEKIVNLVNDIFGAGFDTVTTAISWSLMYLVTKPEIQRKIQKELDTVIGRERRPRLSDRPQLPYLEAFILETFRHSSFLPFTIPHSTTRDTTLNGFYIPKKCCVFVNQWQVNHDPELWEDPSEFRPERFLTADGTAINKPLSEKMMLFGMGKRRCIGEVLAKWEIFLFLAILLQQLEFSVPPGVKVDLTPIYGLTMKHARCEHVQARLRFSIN
T2 sequence (P08684 whole entry): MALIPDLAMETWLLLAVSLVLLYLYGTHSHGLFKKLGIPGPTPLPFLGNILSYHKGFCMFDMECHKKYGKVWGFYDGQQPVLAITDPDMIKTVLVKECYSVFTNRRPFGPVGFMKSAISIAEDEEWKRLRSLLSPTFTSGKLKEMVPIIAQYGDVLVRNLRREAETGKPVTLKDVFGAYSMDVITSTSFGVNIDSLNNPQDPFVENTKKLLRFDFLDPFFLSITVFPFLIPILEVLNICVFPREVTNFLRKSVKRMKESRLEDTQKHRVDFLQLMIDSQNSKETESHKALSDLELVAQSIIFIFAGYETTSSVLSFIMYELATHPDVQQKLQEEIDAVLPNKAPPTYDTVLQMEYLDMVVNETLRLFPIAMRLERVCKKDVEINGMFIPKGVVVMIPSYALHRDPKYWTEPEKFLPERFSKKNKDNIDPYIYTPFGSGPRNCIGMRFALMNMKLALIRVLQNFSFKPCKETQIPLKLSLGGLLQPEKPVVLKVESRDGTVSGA
T7 sequence (P10635 whole entry): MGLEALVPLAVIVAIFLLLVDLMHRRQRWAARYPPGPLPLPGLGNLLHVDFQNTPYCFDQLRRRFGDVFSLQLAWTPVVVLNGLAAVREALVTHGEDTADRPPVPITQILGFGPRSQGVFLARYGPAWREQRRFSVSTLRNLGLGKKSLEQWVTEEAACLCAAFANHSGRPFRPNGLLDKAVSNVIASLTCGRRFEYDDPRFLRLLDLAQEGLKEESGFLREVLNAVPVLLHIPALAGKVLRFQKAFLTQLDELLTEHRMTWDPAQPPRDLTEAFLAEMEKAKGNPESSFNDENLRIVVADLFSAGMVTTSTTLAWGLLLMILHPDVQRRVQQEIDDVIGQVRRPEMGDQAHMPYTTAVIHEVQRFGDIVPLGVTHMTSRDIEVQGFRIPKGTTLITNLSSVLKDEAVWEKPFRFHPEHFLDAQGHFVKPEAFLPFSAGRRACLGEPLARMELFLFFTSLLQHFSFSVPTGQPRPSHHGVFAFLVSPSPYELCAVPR
T5 sequence (P11712 whole entry): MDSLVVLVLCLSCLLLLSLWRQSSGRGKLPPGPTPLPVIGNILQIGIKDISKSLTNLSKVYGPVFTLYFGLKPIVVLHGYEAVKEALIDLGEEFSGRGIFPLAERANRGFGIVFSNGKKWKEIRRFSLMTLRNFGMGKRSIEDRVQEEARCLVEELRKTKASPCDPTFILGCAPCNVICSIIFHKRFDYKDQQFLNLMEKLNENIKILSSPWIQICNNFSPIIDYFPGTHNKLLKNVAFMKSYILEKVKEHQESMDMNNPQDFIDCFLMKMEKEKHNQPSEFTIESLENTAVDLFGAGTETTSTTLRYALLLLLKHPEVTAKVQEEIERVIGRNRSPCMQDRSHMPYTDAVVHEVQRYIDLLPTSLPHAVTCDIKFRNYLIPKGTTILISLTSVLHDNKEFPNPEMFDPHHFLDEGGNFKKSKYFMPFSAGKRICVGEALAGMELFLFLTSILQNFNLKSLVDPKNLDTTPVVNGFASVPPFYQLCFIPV
T4 sequence (P10632 whole entry): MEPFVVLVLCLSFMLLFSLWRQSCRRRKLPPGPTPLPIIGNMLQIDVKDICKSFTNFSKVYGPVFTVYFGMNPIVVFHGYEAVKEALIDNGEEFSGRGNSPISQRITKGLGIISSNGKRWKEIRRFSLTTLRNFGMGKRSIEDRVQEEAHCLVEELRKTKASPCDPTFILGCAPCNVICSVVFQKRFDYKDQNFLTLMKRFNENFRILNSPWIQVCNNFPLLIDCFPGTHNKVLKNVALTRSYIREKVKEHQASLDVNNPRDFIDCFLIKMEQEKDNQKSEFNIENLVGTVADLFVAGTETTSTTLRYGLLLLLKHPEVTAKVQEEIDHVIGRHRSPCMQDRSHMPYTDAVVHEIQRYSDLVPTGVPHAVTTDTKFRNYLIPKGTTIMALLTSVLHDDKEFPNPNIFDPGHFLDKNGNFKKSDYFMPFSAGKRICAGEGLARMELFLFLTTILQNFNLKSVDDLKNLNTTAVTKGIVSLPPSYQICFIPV

Cc1ccc(CN2CC[C@@H](N3CC[C@@H](c4ccc(O)cc4)[C@H](F)C3)C2=O)cc1
TDI [1]: Not Active | TDI [2]: Not Active | IC50 [3]: 0.024 µM | Occ [4]: 73% | concentration [5]: 270 to 1100 nM | fraction unbound [6]: 0.06 | fraction unbound [7]: 0.09 | fraction unbound [8]: 0.12 | pKa [9]: 4.4 | Occ [10]: 95% | inhibition [11]: -2.4% | inhibition [12]: 8.6% | inhibition [13]: 7% | Activity [14]: Non-Toxic | fraction unbound [15]: 0.11 | half-life [16]: 25 min | half-life [17]: 2.7 min | half-life [18]: 3.5 min | half-life [19]: 12 min | half-life [20]: 6 min | fraction unbound [21]: 0.07 | IC50 [22]: > 18 µM | IC50 [23]: > 18 µM | IC50 [24]: > 18 µM | IC50 [25]: > 18 µM | IC50 [26]: > 18 µM | IC50 [27]: > 18 µM | IC50 [28]: > 18 µM | logD [29]: 2.9 | solubility [30]: 2 µg/mL (≈ 5.23 µM) | Kp [31]: 2.8 | Ki [32]: 0.0042 µM | Ki [33]: 0.0063 µM | half-life [34]: 216 min | clearance [35]: 75 mL/min/kg | Vd [36]: 8.2 L/kg | AUC(0-t) at 5 min [37]: 0.53 µM·h | half-life [38]: 54 min | clearance [39]: 54 mL/min/kg | Vd [40]: 2.3 L/kg | AUC(0-t) at 5 min [41]: 1.3 µM·h | half-life [42]: 90 min | clearance [43]: 15 mL/min/kg | Vd [44]: 1.7 L/kg | AUC(0-t) at 5 min [45]: 2.7 µM·h | half-life [46]: 126 min | clearance [47]: 17 mL/min/kg | Vd [48]: 2.1 L/kg | AUC(0-t) at 5 min [49]: 2.5 µM·h | bioavailability [50]: 2.5% | Activity [51]: Non-Toxic | Cp(f) [52]: <= 19 uM | TDI [53]: Not Active | TDI [54]: Not Active | TDI [55]: Not Active | TDI [56]: Not Active | TDI [57]: Not Active | inhibition [58]: inactive | Drug metabolism [59]: Metabolite_Detected | Drug metabolism [60]: Metabolite_Detected | Drug metabolism [61]: Metabolite_Detected | Drug metabolism [62]: Metabolite_Detected | Drug metabolism [63]: Metabolite_Detected | AUC [64]: 88 µM·h

Cc1ccc(CN2CC[C@@H](N3CC[C@H](c4ccc(O)cc4)[C@H](F)C3)C2=O)cc1
concentration [5]: 590 nM | IC50 [65]: 7.8 µM | Occ [10]: 95%

Cc1ccc(CN2CC[C@@H](N3CCC(c4ccc(O)cc4)CC3)C2=O)cc1
Occ [4]: 92% | concentration [5]: 220 nM | IC50 [65]: 0.4 µM

O=C1[C@H](N2CC[C@@H](c3ccc(O)cc3)[C@H](F)C2)CCN1Cc1ccc(F)cc1
Ki [66]: 0.011 µM | concentration [5]: 1200 nM | IC50 [65]: > 5 µM | Occ [10]: 81%

Cc1ccc(CN2CC[C@@H](N3CCC(c4ccc(O)cc4)C(F)(F)C3)C2=O)cc1 (some centres not stated)
concentration [5]: 2500 nM | IC50 [65]: > 30 µM | Occ [10]: 93%

— ChEMBL document CHEMBL4145597, “BMS-986163, a Negative Allosteric Modulator of GluN2B with Potential Utility in Major Depressive Disorder” (ACS Med Chem Lett, 2018)
